Data published in US8193362B2 (Syngenta Crop Protection LLC, priority 2008, dated 2012).

Experiments:
Format in all cases: in vivo
[1] = system: Heliothis virescens (Tobacco Budworm); assay: Comparative Heliothis virescens egg test in petri dishes on artificial diet; details: 144 h, 6 days incubation, read-out: percentage of dead larvae; for pest or weed control at 0.8 ppm: concentration 0.8 ppm; for pest or weed control at 1.5 ppm: concentration 1.5 ppm; for pest or weed control at 3 ppm: concentration 3 ppm; for pest or weed control at 6 ppm: concentration 6 ppm
Experimental: This Example illustrates the pesticidal/insecticidal properties of compounds of formula (I) compared to Comparative Compound A and Comparative Compound B. Comparative Compound A and Comparative Compound B were disclosed in WO 2006/003494.
(§1) Heliothis virescens (Tobacco Budworm):
Fresh eggs (0-24 h old) on filterpaper were placed in petri dishes on top of a layer of artificial diet and treated with diluted test solutions by pipetting. After an incubation period of 6 days, samples were checked for larval mortality and growth regulation. The percentage of dead larvae was assessed.

[2] = system: Spodoptera littoralis (Egyptian Cotton Leafworm); assay: Spodoptera littoralis cotton leaf disc spray test; details: foliar, 72 h, 200 ppm spray on cotton leaf discs, L1 larvae, mortality, feeding behavior, growth regulation 3 DAT
Excerpt: Spodoptera littoralis (Egyptian Cotton Leafworm)
Cotton leaf discs were placed on agar in a 24-well microtiter plate and sprayed with test solutions at an application rate of 200 ppm. After drying, the leaf discs were infested with 5 L1 larvae. The samples were checked for mortality, feeding behavior, and growth regulation 3 days after treatment (DAT).

[3] = system: Plutella xylostella (Diamond Back Moth); assay: Plutella xylostella L2 larvae test on artificial diet in 24-well microtiter plate; details: 144 h, 200 ppm (concentration in well 18 ppm), 6 days, larval mortality, growth regulation
Experimental: Plutella xylostella (Diamond Back Moth):
A 24-well microtiter plate (MTP) with artificial diet was treated with test solutions at an application rate of 200 ppm (concentration in well 18 ppm) by pipetting. After drying, the MTP's were infested with L2 larvae (7-12 per well). After an incubation period of 6 days, samples were checked for larval mortality and growth regulation.

[4] = system: Heliothis virescens (Tobacco Budworm); assay: Heliothis virescens egg test on artificial diet in 24-well microtiter plate; details: 96 h, 200 ppm (concentration in well 18 ppm), eggs 0-24 h old, 4 days, egg mortality, larval mortality, growth regulation
Experimental: as §1
Eggs (0-24 h old) were placed in 24-well microtiter plate on artificial diet and treated with test solutions at an application rate of 200 ppm (concentration in well 18 ppm) by pipetting. After an incubation period of 4 days, samples were checked for egg mortality, larval mortality and growth regulation.

SMILES	pest or weed control at 0.8 ppm [1] [%]	pest or weed control at 1.5 ppm [1] [%]	pest or weed control at 3 ppm [1] [%]	pest or weed control at 6 ppm [1] [%]	pest or weed control at 200 ppm [2] [%]	pest or weed control at 200 ppm [3] [%]	pest or weed control at 200 ppm [4] [%]
O=C(Nc1cc(Cl)cnc1C1CCN(C/C=C/c2ccc(Cl)cc2)CC1)c1ccnc(Cl)c1 [Comparative Compound B, reference compound]	0	50	93	100	–	–	–
O=C(Nc1c(C2CCN(C/C=C/c3ccc(Cl)cc3)CC2)nc(Cl)c(Cl)c1Cl)c1ccnc(Cl)c1 [Compound J1, 2-chloro-N-{4,5,6-trichloro-1′-[(E)-3-(4-chlorophenyl)-allyl]-1′,2′,3′,4′,5′,6′-hexahydro-[2,4′]bipyridinyl-3-yl}-isonicotinamide]	40	90	93	100	≥ 80	≥ 80	≥ 80
O=C(Nc1cc(Cl)c(C(F)(F)F)nc1C1CCN(C/C=C/c2ccc(Cl)cc2)CC1)c1ccnc(Cl)c1 [Compound H1, 2-chloro-N-{5-chloro-1′-[(E)-3-(4-chloro-phenyl)-allyl]-6-trifluoromethyl-1′,2′,3′,4′,5′,6′-hexahydro-[2,4′]bipyridinyl-3-yl}-isonicotinamide]	40	78	100	100	≥ 80	≥ 80	≥ 80
O=C(Nc1ccc(C(F)F)nc1C1CCN(C/C=C/c2ccc(Cl)cc2)CC1)c1ccnc(Cl)c1 [Compound O1, 2-chloro-N-{1′-[(E)-3-(4-chloro-phenyl)-allyl]-6-difluoromethyl-1′,2′,3′,4′,5′,6′-hexahydro-[2,4]bipyridinyl-3-yl}-isonicotinamide]	–	–	–	–	≥ 80	≥ 80	≥ 80
O=C(Nc1ccc(Cl)nc1C1CCN(C/C=C/c2ccc(Cl)cc2)CC1)c1ccnc(Cl)c1 [Comparative Compound A, reference compound]	30	50	70	93	–	–	–
O=C(Nc1ccc(C(F)(F)F)nc1C1CCN(C/C=C/c2ccc(Cl)cc2)CC1)c1ccnc(Cl)c1 [Compound A14, 2-chloro-N-{1′-[(E)-3-(4-chloro-phenyl)-allyl]-6-trifluoromethyl-1′,2′,3′,4′,5′,6′-hexahydro-[2,4′]bipyridinyl-3-yl}-isonicotinamide]	100	100	100	100	≥ 80	–	–
O=C(Nc1cc(Cl)c(Cl)nc1C1CCN(C/C=C/c2ccc(Cl)cc2)CC1)c1ccnc(Cl)c1 [Compound Q20]	–	–	–	–	–	≥ 80	≥ 80
O=C(Nc1cc(C(F)(F)F)c(Cl)nc1C1CC[N+]([O-])(C/C=C/c2ccc(Br)cc2)CC1)c1ccnc(Cl)c1 (centres unmarked) [Compound R4]	–	–	–	–	≥ 80	≥ 80	≥ 80
O=C(Nc1c(F)cc(C(F)(F)F)nc1C1CCN(C/C=C/c2ccc(Cl)cc2)CC1)c1ccnc(Cl)c1 [Compound K1, 2-chloro-N-{1′-[(E)-3-(4-chloro-phenyl)-allyl]-4-fluoro-6-trifluoromethyl-1′,2′,3′,4′,5′,6′-hexahydro-[2,4′]bipyridinyl-3-yl}-isonicotinamide]	–	–	–	–	≥ 80	≥ 80	≥ 80
